Data published in the supplement of paper PMC10307832.

Assays:
Assay in all cases: relative viability (nuclei count vs DMSO), 5 days (fraction); higher = more cells survive
[1] = compound: CC1=C(C(=O)N2C=CSC2=N1)CCN3CCC(=C(C4=CC=CC=C4)C5=CC=C(C=C5)F)CC3 + COc1cccc2cc(-c3nc([C@H]4CC[C@H](C(=O)O)CC4)n4ncnc(N)c34)[nH]c12 [OSI-027] (partner 0.5 µM)
Summary of the method: (§1)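 The day after seeding in 1536-well plates, lung cancer cell lines were treated by pin tool with a single drug, or with a fixed anchor-drug dose together with five library-drug doses (not always all listed) in √10 steps. After 5 days, a combined fix-and-stain solution (final 0.05% Triton X-100, 1% formaldehyde, 1 ug/ml Hoechst) was added. Nuclei counted on 4× images gave relative viability as treated counts over vehicle counts, reported as the median of duplicate plates.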

[2] = compound: CC1=C(C(=O)N2C=CSC2=N1)CCN3CCC(=C(C4=CC=CC=C4)C5=CC=C(C=C5)F)CC3 + CC(=O)Nc1cccc(-n2c(=O)n(C3CC3)c(=O)c3c(Nc4ccc(I)cc4F)n(C)c(=O)c(C)c32)c1 [Trametinib] (partner 0.02 µM)
Summary of the method: as §1

[3] = compound: CC1=C(C(=O)N2C=CSC2=N1)CCN3CCC(=C(C4=CC=CC=C4)C5=CC=C(C=C5)F)CC3 + N=C(N)NC(=N)NCCc1ccccc1 [Phenformin] (partner 250 µM)
Summary of the method: as §1

[4] = compound: CC1=C(C(=O)N2C=CSC2=N1)CCN3CCC(=C(C4=CC=CC=C4)C5=CC=C(C=C5)F)CC3 + C[C@@H](Oc1cc(-c2cnn(C3CCNCC3)c2)cnc1N)c1c(Cl)ccc(F)c1Cl [Crizotinib] (partner 1 µM)
Summary of the method: as §1

Cell Line	relative viability ([1]; first compound 0.08 µM)	relative viability ([1]; first compound 0.253 µM)	relative viability ([1]; first compound 0.8 µM)	relative viability ([1]; first compound 2.53 µM)	relative viability ([1]; first compound 8 µM)	relative viability ([2]; first compound 0.08 µM)	relative viability ([2]; first compound 0.253 µM)	relative viability ([2]; first compound 0.8 µM)	relative viability ([2]; first compound 2.53 µM)	relative viability ([2]; first compound 8 µM)	relative viability ([3]; first compound 0.08 µM)	relative viability ([3]; first compound 0.253 µM)	relative viability ([3]; first compound 0.8 µM)	relative viability ([3]; first compound 2.53 µM)	relative viability ([3]; first compound 8 µM)	relative viability ([4]; first compound 0.08 µM)	relative viability ([4]; first compound 0.253 µM)	relative viability ([4]; first compound 0.8 µM)	relative viability ([4]; first compound 2.53 µM)	relative viability ([4]; first compound 8 µM)
NCI-H1666	0.872	0.913	0.731	0.8	0.606	0.76	0.891	0.9	0.985	0.717	0.531	0.609	0.581	0.591	0.527	0.909	0.939	0.839	0.937	0.866
NCI-H1734	0.549	0.571	0.564	0.576	0.416	0.741	0.598	0.691	0.688	0.512	0.419	0.378	0.371	0.405	0.322	0.661	0.653	0.625	0.672	0.467
NCI-H1755	0.744	0.861	0.664	0.68	0.672	0.751	0.716	0.794	0.778	0.595	0.681	0.659	0.578	0.66	0.565	0.927	0.87	0.907	0.997	0.722
NCI-H1792	0.596	0.643	0.789	0.566	0.485	0.205	0.432	0.378	0.531	0.166		0.257	0.211	0.33	0.254	1.01	0.671	1.02	1.11	0.549
NCI-H1915	0.758	0.599	0.589	0.642	0.464	0.331	0.326	0.322	0.283	0.261	0.376	0.377	0.365	0.363	0.317	0.953	1.01	0.957	0.862	0.521
NCI-H1944	0.408	0.42	0.37	0.426	0.31	0.382	0.373	0.436	0.368	0.335	0.195	0.207	0.229	0.188	0.182	1.06	1.08	1.22	1.14	1.07
NCI-H1975	0.912	0.673	0.679	0.836	0.437	0.349	0.389	0.389	0.35	0.311	0.393	0.425	0.397	0.441	0.381	0.984	0.96	0.93	0.943	0.583
NCI-H1993	0.611	0.498	0.546	0.58	0.626	0.494	0.364	0.501	0.511	0.513	0.505	0.411	0.51	0.568	0.536	0.708		0.796	0.906	0.832
